Data published in paper PMC5218480 (PLoS ONE, 2017).

Test system: MV-4-11 cells
Experiment: Gene expression microarray analysis (Affymetrix PrimeView) and GSEA
Format: cell-based, human
Design: RFU PODN (11730768_x_at) / Fold change /veh PODN (11730768_x_at) / RFU LINC00158 (11744669_a_at) / Fold change /veh LINC00158 (11744669_a_at) / RFU DUSP10 (11751237_a_at) / Fold change /veh DUSP10 (11751237_a_at) / RFU ID3 (11757404_x_at) / Fold change /veh ID3 (11757404_x_at) / RFU PLEKHG5 (11737974_s_at) / Fold change /veh PLEKHG5 (11737974_s_at) / RFU LRRC4B (11730491_at) / Fold change /veh LRRC4B (11730491_at) / RFU GIMAP4 (11747438_a_at) / Fold change /veh GIMAP4 (11747438_a_at) / RFU KRT8 (11758183_x_at) / Fold change /veh KRT8 (11758183_x_at) / RFU CNN1 (11734310_a_at) / Fold change /veh CNN1 (11734310_a_at) / RFU VPS37D (11726825_at) / Fold change /veh VPS37D (11726825_at) / RFU C10orf10 (11716522_x_at) / Fold change /veh C10orf10 (11716522_x_at) / RFU KIR2DL2 /// KIR2DL4 /// KIR2DL5A /// KIR2DL5B /// KIR2DS1 /// KIR2DS2 /// KIR2DS3 /// KIR2DS4 /// KIR3DL3 /// KIR3DL3 /// KIR3DS1 (11738374_at) / Fold change /veh KIR2DL2 /// KIR2DL4 /// KIR2DL5A /// KIR2DL5B /// KIR2DS1 /// KIR2DS2 /// KIR2DS3 /// KIR2DS4 /// KIR3DL3 /// KIR3DL3 /// KIR3DS1 (11738374_at) / RFU C1QL1 (11718748_at) / Fold change /veh C1QL1 (11718748_at) / RFU TMPRSS4 (11747572_a_at) / Fold change /veh TMPRSS4 (11747572_a_at) / RFU HAMP (11756126_x_at) / Fold change /veh HAMP (11756126_x_at) / RFU RNFT2 (11725882_a_at) / Fold change /veh RNFT2 (11725882_a_at) / RFU NR4A2 (11747474_a_at) / Fold change /veh NR4A2 (11747474_a_at) / RFU ABCC12 (11746883_a_at) / Fold change /veh ABCC12 (11746883_a_at) / RFU TMEM136 (11760407_x_at) / Fold change /veh TMEM136 (11760407_x_at) / RFU CLDN22 /// WWC2 (11732394_at) / Fold change /veh CLDN22 /// WWC2 (11732394_at) / RFU HLA-DPB1 (11760878_x_at) / Fold change /veh HLA-DPB1 (11760878_x_at) / RFU SPINT1 (11716480_a_at) / Fold change /veh SPINT1 (11716480_a_at) / RFU GAP43 (11754022_s_at) / Fold change /veh GAP43 (11754022_s_at) / RFU A4GNT (11735810_at) / Fold change /veh A4GNT (11735810_at) / RFU PRB3 (11715151_x_at) / Fold change /veh PRB3 (11715151_x_at) / RFU TUBB4B (11761932_at) / Fold change /veh TUBB4B (11761932_at) / RFU CAPN14 (11732068_a_at) / Fold change /veh CAPN14 (11732068_a_at) / RFU TMCC2 (11721928_a_at) / Fold change /veh TMCC2 (11721928_a_at) / RFU IRGQ (11745062_a_at) / Fold change /veh IRGQ (11745062_a_at) / RFU FAM174B (11720279_a_at) / Fold change /veh FAM174B (11720279_a_at) / RFU TMPRSS4 (11748680_a_at) / Fold change /veh TMPRSS4 (11748680_a_at) / RFU FAM212B (11763350_a_at) / Fold change /veh FAM212B (11763350_a_at) / RFU PLEKHG5 (11743358_a_at) / Fold change /veh PLEKHG5 (11743358_a_at) / RFU ZSCAN30 (11745921_a_at) / Fold change /veh ZSCAN30 (11745921_a_at) / RFU CMKLR1 (11741424_a_at) / Fold change /veh CMKLR1 (11741424_a_at) / RFU LOC101060620 /// MAPK8IP1 (11723275_at) / Fold change /veh LOC101060620 /// MAPK8IP1 (11723275_at) / RFU SPTSSB (11747773_x_at) / Fold change /veh SPTSSB (11747773_x_at) / RFU PRSS12 (11739890_at) / Fold change /veh PRSS12 (11739890_at) / RFU BIN1 (11741810_x_at) / Fold change /veh BIN1 (11741810_x_at) / RFU WNT11 (11732464_a_at) / Fold change /veh WNT11 (11732464_a_at) / RFU C10orf10 (11716521_a_at) / Fold change /veh C10orf10 (11716521_a_at) / RFU C5orf56 (11738089_at) / Fold change /veh C5orf56 (11738089_at) / RFU CYB561 (11721691_x_at) / Fold change /veh CYB561 (11721691_x_at) / RFU ANKRD19P (11752326_a_at) / Fold change /veh ANKRD19P (11752326_a_at) / RFU OR2T12 /// OR2T33 /// OR2T8 (11738714_s_at) / Fold change /veh OR2T12 /// OR2T33 /// OR2T8 (11738714_s_at) / RFU VCAN (11748164_a_at) / Fold change /veh VCAN (11748164_a_at) / RFU JSRP1 (11732532_at) / Fold change /veh JSRP1 (11732532_at) / RFU KRTAP10-11 (11738290_x_at) / Fold change /veh KRTAP10-11 (11738290_x_at) / RFU MYO3A (11730013_a_at) / Fold change /veh MYO3A (11730013_a_at) / RFU EBF3 (11725865_a_at) / Fold change /veh EBF3 (11725865_a_at) / RFU CAMK2N1 (11719241_x_at) / Fold change /veh CAMK2N1 (11719241_x_at) / RFU C5orf56 (11738088_a_at) / Fold change /veh C5orf56 (11738088_a_at) / RFU OLFML3 (11715873_a_at) / Fold change /veh OLFML3 (11715873_a_at) / RFU LOC100653217 /// NTM (11731650_a_at) / Fold change /veh LOC100653217 /// NTM (11731650_a_at) / RFU MAPK11 (11762145_a_at) / Fold change /veh MAPK11 (11762145_a_at) / RFU FIZ1 (11724087_x_at) / Fold change /veh FIZ1 (11724087_x_at) / RFU OASL (11726364_x_at) / Fold change /veh OASL (11726364_x_at) / RFU SOX15 (11748057_x_at) / Fold change /veh SOX15 (11748057_x_at) / RFU CD79A (11719716_a_at) / Fold change /veh CD79A (11719716_a_at) / RFU HIST1H1D (11736915_at) / Fold change /veh HIST1H1D (11736915_at) / RFU CASKIN2 (11723855_a_at) / Fold change /veh CASKIN2 (11723855_a_at) / RFU LOC730098 (11760151_x_at) / Fold change /veh LOC730098 (11760151_x_at) / RFU OR4N2 (11742367_at) / Fold change /veh OR4N2 (11742367_at) / RFU PRRT2 (11749266_a_at) / Fold change /veh PRRT2 (11749266_a_at) / RFU SNX32 (11753110_a_at) / Fold change /veh SNX32 (11753110_a_at) / RFU CDHR5 (11726645_a_at) / Fold change /veh CDHR5 (11726645_a_at) / RFU RCAN1 (11760418_a_at) / Fold change /veh RCAN1 (11760418_a_at) / RFU FAM167A (11723789_a_at) / Fold change /veh FAM167A (11723789_a_at) / RFU FAM26E (11764081_at) / Fold change /veh FAM26E (11764081_at) / RFU ISYNA1 (11749810_s_at) / Fold change /veh ISYNA1 (11749810_s_at) / RFU ACY1 (11761880_at) / Fold change /veh ACY1 (11761880_at) / RFU 11764098_at / Fold change /veh 11764098_at / RFU SAMD14 (11745864_x_at) / Fold change /veh SAMD14 (11745864_x_at) / RFU NPB (11741838_a_at) / Fold change /veh NPB (11741838_a_at) / RFU TMPRSS6 (11731388_a_at) / Fold change /veh TMPRSS6 (11731388_a_at) / RFU KRTAP10-2 (11738614_at) / Fold change /veh KRTAP10-2 (11738614_at) / RFU ARHGAP8 /// PRR5-ARHGAP8 (11727945_x_at) / Fold change /veh ARHGAP8 /// PRR5-ARHGAP8 (11727945_x_at) / RFU KRTAP5-7 /// NADSYN1 (11734609_at) / Fold change /veh KRTAP5-7 /// NADSYN1 (11734609_at) / RFU RASL12 (11751679_a_at) / Fold change /veh RASL12 (11751679_a_at) / RFU CDKN2B (11736163_a_at) / Fold change /veh CDKN2B (11736163_a_at) / RFU PRF1 (11729649_at) / Fold change /veh PRF1 (11729649_at) / RFU, ZNF638 /// ZNF638-IT1 / Fold change vs veh, ZNF638 /// ZNF638-IT1 / RFU, PANK3 / Fold change vs veh, PANK3 / RFU, SH3YL1 / Fold change vs veh, SH3YL1 / RFU, ZEB2 / Fold change vs veh, ZEB2 / RFU, NRIP1 / Fold change vs veh, NRIP1 / RFU, PTTG1IP / Fold change vs veh, PTTG1IP / RFU, CAPN2 / Fold change vs veh, CAPN2 / RFU, MED14 / Fold change vs veh, MED14 / RFU, SNORA58 / Fold change vs veh, SNORA58 / RFU, C1orf63 / Fold change vs veh, C1orf63 / RFU, LRRFIP1 / Fold change vs veh, LRRFIP1 / RFU, NDUFAF7 / Fold change vs veh, NDUFAF7 / RFU, SLC12A2 / Fold change vs veh, SLC12A2 / RFU, IBTK / Fold change vs veh, IBTK / RFU, ESF1 / Fold change vs veh, ESF1 / Fold change vs veh, TMEM50B / RFU, TAOK1 / Fold change vs veh, TAOK1 / RFU, ACBD3 / Fold change vs veh, ACBD3 / RFU, TMA16 / Fold change vs veh, TMA16 / RFU, RWDD3 / Fold change vs veh, RWDD3 / RFU, BCAT1 / Fold change vs veh, BCAT1 / RFU, EDEM3 / Fold change vs veh, EDEM3 / RFU, TMEM33 / Fold change vs veh, TMEM33 / RFU, WDR75 / Fold change vs veh, WDR75 / RFU, AHCTF1 / Fold change vs veh, AHCTF1 / RFU, TFRC / Fold change vs veh, TFRC / RFU, ZDHHC17 / Fold change vs veh, ZDHHC17 / RFU, NOM1 / Fold change vs veh, NOM1 / RFU, ARL8B / Fold change vs veh, ARL8B / RFU, ZBTB11 / Fold change vs veh, ZBTB11 / RFU, TAMM41 / Fold change vs veh, TAMM41 / RFU, KIAA1704 /// LOC100996395 / Fold change vs veh, KIAA1704 /// LOC100996395 / RFU, ING1 / Fold change vs veh, ING1 / RFU, TRMT61B / Fold change vs veh, TRMT61B / RFU, FUBP3 / Fold change vs veh, FUBP3 / RFU, TP53 / Fold change vs veh, TP53 / RFU, TNKS2 / Fold change vs veh, TNKS2 / RFU, ZFP14 / Fold change vs veh, ZFP14 / RFU, ACTR2 / Fold change vs veh, ACTR2 / RFU, PPP3R1 / Fold change vs veh, PPP3R1 / RFU, PIK3R1 / Fold change vs veh, PIK3R1 / RFU, HNRNPA1 / Fold change vs veh, HNRNPA1 / RFU, RNF170 / Fold change vs veh, RNF170 / RFU, ZNF28 / Fold change vs veh, ZNF28 / RFU, RNGTT / Fold change vs veh, RNGTT / RFU, OGT / Fold change vs veh, OGT / RFU, BRD1 / Fold change vs veh, BRD1 / RFU, MARS / Fold change vs veh, MARS / RFU, ZNF655 / Fold change vs veh, ZNF655 / RFU, FAHD1 / Fold change vs veh, FAHD1 / RFU, BDP1 / Fold change vs veh, BDP1 / RFU, LRRCC1 / Fold change vs veh, LRRCC1 / RFU, ARID1A / Fold change vs veh, ARID1A / RFU, ZNF146 / Fold change vs veh, ZNF146 / RFU, ZNF330 / Fold change vs veh, ZNF330 / RFU, GPN3 / Fold change vs veh, GPN3 / RFU, C9orf123 / Fold change vs veh, C9orf123 / RFU, N4BP2L2 / Fold change vs veh, N4BP2L2 / RFU, ARFIP1 / Fold change vs veh, ARFIP1 / RFU, FAM179B / Fold change vs veh, FAM179B / RFU, BCL10 / Fold change vs veh, BCL10 / RFU, UHRF1BP1L / Fold change vs veh, UHRF1BP1L / RFU, BET1 / Fold change vs veh, BET1 / RFU, CNOT2 / Fold change vs veh, CNOT2 / RFU, ZNF268 / Fold change vs veh, ZNF268 / Fold change vs veh, ZNF507 / RFU, DGCR2 / Fold change vs veh, DGCR2 / RFU, WDSUB1 / Fold change vs veh, WDSUB1 / Fold change vs veh, HSP90B1 /// MIR3652 / RFU, ADSS / Fold change vs veh, ADSS / RFU, GK / Fold change vs veh, GK / RFU, ZNF148 / Fold change vs veh, ZNF148 / RFU, TAF9 / Fold change vs veh, TAF9 / RFU, SLC1A5 / Fold change vs veh, SLC1A5 / RFU, SLMO2 / Fold change vs veh, SLMO2 / RFU, ABCC4 / Fold change vs veh, ABCC4 / RFU, LOC101060439 /// RAP1B / Fold change vs veh, LOC101060439 /// RAP1B / RFU, RFX7 / Fold change vs veh, RFX7 / RFU, GTPBP10 / Fold change vs veh, GTPBP10 / RFU, CNEP1R1 / Fold change vs veh, CNEP1R1 / RFU, BIVM-ERCC5 /// ERCC5 / Fold change vs veh, BIVM-ERCC5 /// ERCC5 / RFU, ILF3 / Fold change vs veh, ILF3 / RFU 11762660_at / Fold change /veh 11762660_at / RFU VCAN (11757783_s_at) / Fold change /veh VCAN (11757783_s_at) / RFU DDX43 (11728927_at) / Fold change /veh DDX43 (11728927_at) / RFU KRT8 (11758188_x_at) / Fold change /veh KRT8 (11758188_x_at) / RFU NKD1 (11759106_at) / Fold change /veh NKD1 (11759106_at) / RFU SRD5A1 (11742802_a_at) / Fold change /veh SRD5A1 (11742802_a_at) / RFU TPSAB1 /// TPSB2 (11721975_s_at) / Fold change /veh TPSAB1 /// TPSB2 (11721975_s_at) / RFU GSTM3 (11746129_a_at) / Fold change /veh GSTM3 (11746129_a_at) / RFU IL23R (11737362_x_at) / Fold change /veh IL23R (11737362_x_at) / RFU TMEM51 (11727254_a_at) / Fold change /veh TMEM51 (11727254_a_at) / RFU PIWIL2 (11732686_x_at) / Fold change /veh PIWIL2 (11732686_x_at) / RFU ORM1 (11744905_x_at) / Fold change /veh ORM1 (11744905_x_at) / RFU CCDC152 (11743942_at) / Fold change /veh CCDC152 (11743942_at) / RFU ECM1 (11717891_a_at) / Fold change /veh ECM1 (11717891_a_at) / RFU IL23R (11748794_a_at) / Fold change /veh IL23R (11748794_a_at) / RFU TNFAIP8L3 (11732012_x_at) / Fold change /veh TNFAIP8L3 (11732012_x_at) / RFU MBOAT4 (11741988_at) / Fold change /veh MBOAT4 (11741988_at) / RFU 11764193_at / Fold change /veh 11764193_at / RFU TMEM53 (11763286_at) / Fold change /veh TMEM53 (11763286_at) / RFU MAGEB2 (11727129_at) / Fold change /veh MAGEB2 (11727129_at) / RFU TMEM200A (11744735_a_at) / Fold change /veh TMEM200A (11744735_a_at) / RFU CCDC152 (11751479_a_at) / Fold change /veh CCDC152 (11751479_a_at) / RFU FAM211A (11726209_a_at) / Fold change /veh FAM211A (11726209_a_at) / RFU RGS16 (11746705_a_at) / Fold change /veh RGS16 (11746705_a_at) / RFU VCAN (11755009_s_at) / Fold change /veh VCAN (11755009_s_at) / RFU RHOB (11743442_s_at) / Fold change /veh RHOB (11743442_s_at) / RFU RGS16 (11720943_a_at) / Fold change /veh RGS16 (11720943_a_at) / RFU RGS16 (11720944_at) / Fold change /veh RGS16 (11720944_at) / RFU, VPS4B / Fold change vs veh, VPS4B / RFU, CREB1 / Fold change vs veh, CREB1 / RFU, DNAJC13 / Fold change vs veh, DNAJC13 / RFU, GNAQ / Fold change vs veh, GNAQ / RFU, CDK5R1 / Fold change vs veh, CDK5R1 / RFU, ZRANB3 / Fold change vs veh, ZRANB3 / RFU, CUL4A / Fold change vs veh, CUL4A / RFU, CCNY / Fold change vs veh, CCNY / RFU, UFL1 / Fold change vs veh, UFL1 / RFU, COG3 / Fold change vs veh, COG3 / RFU, DIAPH2 / Fold change vs veh, DIAPH2 / RFU, SKA2 / Fold change vs veh, SKA2 / RFU, AFF3 / Fold change vs veh, AFF3 / RFU, LMF1 / Fold change vs veh, LMF1 / RFU, IPO11 / Fold change vs veh, IPO11 / RFU, DFFB / Fold change vs veh, DFFB / RFU, FOXP1 / Fold change vs veh, FOXP1 / RFU, CARD8 / Fold change vs veh, CARD8 / RFU, STRN3 / Fold change vs veh, STRN3 / RFU, ADK / Fold change vs veh, ADK / RFU, RASSF2 / Fold change vs veh, RASSF2 / RFU, WIPF1 / Fold change vs veh, WIPF1 / RFU, LARP1B / Fold change vs veh, LARP1B / RFU, RASA1 / Fold change vs veh, RASA1 / RFU, RB1 / Fold change vs veh, RB1 / RFU, PPFIA1 / Fold change vs veh, PPFIA1 / RFU, MAT2A / Fold change vs veh, MAT2A / RFU, CCT5 / Fold change vs veh, CCT5 / RFU, WDR92 / Fold change vs veh, WDR92 / RFU, CUX1 / Fold change vs veh, CUX1 / RFU, TTC7A / Fold change vs veh, TTC7A / RFU, TMEM135 / Fold change vs veh, TMEM135 / RFU, DEPTOR / Fold change vs veh, DEPTOR / RFU, CPM / Fold change vs veh, CPM / RFU, DNAJB6 / Fold change vs veh, DNAJB6 / RFU, CACNA2D3 / Fold change vs veh, CACNA2D3 / RFU, DTX4 / Fold change vs veh, DTX4 / RFU, TFCP2 / Fold change vs veh, TFCP2 / RFU, GMCL1 /// GMCL1P1 / Fold change vs veh, GMCL1 /// GMCL1P1 / RFU, AEBP2 / Fold change vs veh, AEBP2 / RFU, SNHG1 /// SNORD22 /// SNORD25 /// SNORD26 /// SNORD27 /// SNORD28 /// SNORD29 /// SNORD31 / Fold change vs veh, SNHG1 /// SNORD22 /// SNORD25 /// SNORD26 /// SNORD27 /// SNORD28 /// SNORD29 /// SNORD31 / Fold change (Aza/veh), C12orf56 (ProbeSet 11735607_a_at) / Fold change (ACY-1035/veh), C12orf56 (ProbeSet 11735607_a_at) / Fold change (Aza/veh), FGFR1OP (ProbeSet 11751329_s_at) / Fold change (ACY-1035/veh), FGFR1OP (ProbeSet 11751329_s_at) / Fold change (Aza/veh), VPS36 (ProbeSet 11739960_a_at) / Fold change (ACY-1035/veh), VPS36 (ProbeSet 11739960_a_at) / RFU SYPL1 (11715823_x_at) / Fold change /veh SYPL1 (11715823_x_at) / RFU IGFBP7 (11715501_s_at) / Fold change /veh IGFBP7 (11715501_s_at) / RFU REEP3 (11722064_at) / Fold change /veh REEP3 (11722064_at) / RFU IGLL1 (11728026_x_at) / Fold change /veh IGLL1 (11728026_x_at): dose or concentration left out as unconfirmed
Settings: MV-4-11 cells, 48 hours

SMILES: Nc1ncn([C@@H]2O[C@H](CO)[C@@H](O)[C@H]2O)c(=O)n1 [azacitidine]
- RFU C5orf56 (11738088_a_at): 66.32 RFU
